{
  "source": "patent US20090170759A1",
  "about": "“NEUROPROTECTIVE PEPTIDES” (priority 2007, published 2009)",
  "key": {"[1]": {"system": "rat hippocampal cultures", "assay": "Neurite outgrowth assay (MAP2-FITC immunofluorescence), hippocampal cultures", "type": "cell-based", "source_text": "(§1) Dissociated hippocampal and cortical cell cultures were established from embryonic day 18 rat fetuses as previously described (Mattson et al., 1994). Briefly, fetuses were removed via cesarean section from pregnant moms (Sprague-Dawley) anesthetized with halothane according to the AVMA Panel on Euthanasia. Pups were decapitated and the brains were removed and placed in HEPES-buffered Hank's Balanced Salt solution (HBSS; Gibco). The hippocampi and cortices were dissected out and pooled according to tissue-type. Tissue was trypsinized for 15 min (1 mg/ml trypsin-HBSS; Worthington), rinsed with fresh HBSS, incubated in trypsin inhibitor (1 mg/ml; Sigma) for 5 min, rinsed again with fresh HBSS and then triturated in 1 ml fresh HBSS with a fire-polished glass pipette. Dissociated cells were seeded at 30,000 cells/well onto poly-D-lysine coated 96-well plates (Collaborative BioScience). Each well contained 100 μl of Eagle's Minimal Essential Media (MEM; Gibco) supplemented with 26 mM NaHCO3 (Sigma), 56 mM glucose (Sigma), 15 mM KCl (Sigma), 1 mM sodium pyruvate (Sigma), 1.1 mM L-glutamine (Sigma), 10% (v/v) heat-inactivated fetal bovine serum (Hyclone), and 0.001% gentamicin sulfate (Sigma) (pH 7.4). Cells were allowed to attach for 24 h in a humidified 37° C. 5% CO2 incubator before experimental treatment. The culture media was aspirated and exchanged with fresh media every three days.\n(§2) Twenty-four hours after plating, cultures were treated with vehicle (PBS+0.1% BSA), 100 ng of various growth factors (brain derived neurotrophic factor (BDNF; Promega), glial-derived neurotrophic factor (GDNF; Promega), nerve growth factor (NGF; Boehringer Mannheim), basic fibroblast growth factor (bFGF; Boehringer Mannheim), insulin-like growth factor-1 (IGF-1; Boehringer Mannheim), neurotrophin-3 (NT3; Calbiochem), neurotrophin-4 (NT4; Calbiochem), ciliary neurotrophic factor (CNTF; Calbiochem), epidermal growth factor (EGF; Calbiochem), vascular endothelial growth factor (VEGF; Calbiochem)), or rhEPO (prepared same as above; 10 fM-10 nM)). Each treatment condition was run in quadruplicate or octuplicate. On the third day in culture, the media was aspirated off and replaced with fresh media and test compound. At one week in culture, the cells were fixed with 10% phosphate-buffered formalin for 15 min, then rinsed with DPBS (Sigma) and placed in blocking serum for 30 min (horse serum; 1:50 dilution in DPBS; Vector Labs). Cultures were rinsed again with DPBS and then incubated in primary antibody for 2 hr (microtubule-associated protein-2 (MAP-2) is a selective marker for dendritic processes; anti-mouse monoclonal (Chemicon); 1:1000 dilution of MAP-2 in antibody diluent (Zymed)). Negative control wells were incubated in antibody diluent alone. Background signal was determined by blank wells (cell-free) incubated with or without antibody. Cultures were rinsed again with DPBS and then placed in fluorescein for 1 hr (FITC; anti-mouse IgG; rat adsorbed; 1:50 dilution in DPBS; Vector Labs). Cultures were rinsed a final time with DPBS and then the plates were read on a Cytofluor 4000 fluorescence plate reader. Neurite outgrowth was expressed as percent change from control (vehicle; mean fluorescence±SD).\n(§3) Dissociated hippocampal and cortical cell cultures were established from embryonic day 18 rat fetuses as previously described (Mattson et al., 1994). Briefly, fetuses were removed via cesarean section from pregnant moms (Sprague-Dawley) anesthetized with halothane according to the AVMA Panel on Euthanasia. Pups were decapitated and the brains were removed and placed in HEPES-buffered Hank's Balanced Salt solution (HBSS; Gibco). The hippocampi and cortices were dissected out and pooled according to tissue-type. […]"}, "[2]": {"system": "rat cerebral cortical neurons", "assay": "Glutamate toxicity assay in primary cortical cultures", "type": "cell-based", "details": "pretreatment 24 h prior to 100 μM glutamate", "source_text": "Dissociated hippocampal and cortical cell cultures were established from embryonic day 18 rat fetuses as previously described (Mattson et al., 1994). Briefly, fetuses were removed via cesarean section from pregnant moms (Sprague-Dawley) anesthetized with halothane according to the AVMA Panel on Euthanasia. Pups were decapitated and the brains were removed and placed in HEPES-buffered Hank's Balanced Salt solution (HBSS; Gibco). The hippocampi and cortices were dissected out and pooled according to tissue-type. Tissue was trypsinized for 15 min (1 mg/ml trypsin-HBSS; Worthington), rinsed with fresh HBSS, incubated in trypsin inhibitor (1 mg/ml; Sigma) for 5 min, rinsed again with fresh HBSS and then triturated in 1 ml fresh HBSS with a fire-polished glass pipette. Dissociated cells were seeded at 30,000 cells/well onto poly-D-lysine coated 96-well plates (Collaborative BioScience). […]\nCortical cells were seeded at 200,000 cells/dish onto polyethylenimine-coated 35 mm culture dishes. […] Cell survival was measured by counting viable cells in each field pre- and post-experimental treatment. […] Data were expressed as percent of control (vehicle; mean±SD)."}, "[3]": {"system": "rat cerebral cortical cultures", "assay": "Neurite outgrowth assay (MAP2-FITC immunofluorescence), cortical cultures", "type": "cell-based", "source_text": "as §1, §2, §3"}, "[4]": {"system": "PC-12 cells", "assay": "NGF withdrawal in PC-12 cells", "type": "cell-based, rat", "description": "[…] cells (from a rat Pheochromocytoma) were cultured on poly-D-Lysine coated tissue culture plastic in DMEM containing 10% FBS and 5% Horse serum. To induce the neuronal phenotype in PC-12 cells, serum was removed and the cells were treated with NGF (50 ng/ml). Cells were grown for 7 days in the presence of the NGF then used for experiments.\nPC-12 cells were cultured as described above in a 96 well poly-d-lysine coated multi-well plate and treated with rhEPO (1 pm to 10 nm) for 24 hr prior to NGF withdrawal. On the day of the experiment the cells were washed with buffer 3 times to remove NGF and then cultured in fresh media without NGF. Immediately following NGF washout cells were counted (t=0) to determine the number of living cells. Cell viability was based on morphological characteristics including phase brightness, presence of axons, and absence of blebbing. Cell counts were performed at 12 hr, 24 hr, 48 hr and 72 hr and the number of viable cells were scored."}},
  "note": "Entries after “also recorded” stand apart in the source; their conditions may differ.",
  "data": [
    {"substance": "rhEPO: purified, recombinant human EPO (rhEPO), currently formulated and distributed under the trademarks of EPREX, ERYPO, or PROCRIT", "values": [
      {"measurement": "neurite outgrowth response over control, hippocampal cultures", "setting": "[1]; Example 3, one week in culture", "value": "12-44%"},
      {"measurement": "neurite outgrowth in rat hippocampal cultures (in words)", "setting": "[1]; figure legends", "value": "promotes neurite outgrowth"},
      {"measurement": "neurite outgrowth promoting activity in hippocampus compared with growth factors", "setting": "[1]; growth factors at 100 ng", "value": "superior to several growth factors including BDNF, NGF and VEGF"},
      {"measurement": "maximal increase of cell survival over parallel cultures treated with glutamate alone", "setting": "[2]", "value": "approximately 200%"},
      {"measurement": "neuronal survival after glutamate (in words)", "setting": "[2]", "value": "significant increase in neuronal survival; also recorded: protects rat cerebral cortical neurons against glutamate toxicity"},
      {"measurement": "neurite outgrowth response over control, cortical cultures", "setting": "[3]; Example 3, one week in culture", "value": "15-29%"},
      {"measurement": "neurite outgrowth in rat cerebral cortical cultures (in words)", "setting": "[3]; figure legends", "value": "promotes neurite outgrowth"},
      {"measurement": "ability to increase neurite outgrowth in cortical cultures compared with known growth factors", "setting": "[3]; growth factors at 100 ng", "value": "greater than or equal to that of known growth factors"},
      {"measurement": "neuroprotective effect at 1 nm, growth factor withdrawal", "setting": "[4]; 1 nm", "value": "no significant effect"},
      {"measurement": "peak / optimum concentration for the neuroprotective effect, NGF withdrawal", "setting": "[4]; 24 hr pre-treatment before NGF withdrawal", "value": 10, "unit": "pm"},
      {"measurement": "viable cells / cell death after NGF withdrawal (in words)", "setting": "[4]; 24 hr pre-treatment, 12 hr, 24 hr, 48 hr and 72 hr after withdrawal, listed as EPO", "value": "significant decrease in cell death; also recorded: increased the number of viable cells at each time point"}
    ]}
  ]
}
